Experimental data taken from ChEMBL document CHEMBL1201862, “PubChem BioAssay data set” (2004).
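Following 48 hours of exposure in 96-well plates, responses at five concentrations were used to interpolate endpoints linearly. GI50 is the concentration that inhibits growth by half.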 Calls of active or inactive are those of the source. No stated cut-off is given here; in the data, active = GI50 up to about 1.1 µM and inactive = higher.

Key:
Assay in all cases: growth of human tumour cells (NCI), 48 h
UO-31 = tested on: UO-31
SNB-19 = tested on: SNB-19
UACC-257 = tested on: UACC-257
NCI-H522 = tested on: NCI-H522
HL-60 = tested on: HL-60
KM12 = tested on: KM12
UACC-62 = tested on: UACC-62
U-251 = tested on: U-251
OVCAR-5 = tested on: OVCAR-5
NCI-H460 = tested on: NCI-H460
ACHN = tested on: ACHN
SW-620 = tested on: SW-620
786-0 = tested on: 786-0
EKVX = tested on: EKVX
HOP-92 = tested on: HOP-92

Row | Structure (SMILES) | GI50 (UO-31) | GI50 (SNB-19) | GI50 (UACC-257) | GI50 (NCI-H522) | GI50 (HL-60) | GI50 (KM12) | GI50 (UACC-62) | GI50 (U-251) | GI50 (OVCAR-5) | GI50 (NCI-H460) | GI50 (ACHN) | GI50 (SW-620) | GI50 (786-0) | GI50 (EKVX) | GI50 (HOP-92)
1 | COC(=O)C1=C(CO)C2C=CC1C2 (stereo not drawn) | > 100 µM (inactive) | > 100 µM (inactive) | > 100 µM (inactive) | > 100 µM (inactive) | > 100 µM (inactive) | > 100 µM (inactive) | > 100 µM (inactive) | > 100 µM (inactive) | > 100 µM (inactive) | > 100 µM (inactive) | > 100 µM (inactive) | > 100 µM (inactive) | > 100 µM (inactive) | > 100 µM (inactive) | –
2 | Cc1ccc(NC(=O)c2nc(S)nc(N)c2-c2ccccc2C)cc1C | > 100 µM (inactive) | > 100 µM (inactive) | > 100 µM (inactive) | > 100 µM (inactive) | – | > 100 µM (inactive) | > 100 µM (inactive) | > 100 µM (inactive) | > 100 µM (inactive) | > 100 µM (inactive) | > 100 µM (inactive) | > 100 µM (inactive) | > 100 µM (inactive) | > 100 µM (inactive) | > 100 µM (inactive)
3 | Cc1ccc(NC(=O)CC2SC(Nc3cccc(Cl)c3C)=NC2=O)cc1 (stereo not drawn) | 22.6 µM (inactive) | 40.4 µM (inactive) | 48 µM (inactive) | – | – | 40.9 µM (inactive) | 42 µM (inactive) | 50.4 µM (inactive) | > 100 µM (inactive) | 96.6 µM (inactive) | 41 µM (inactive) | 68.5 µM (inactive) | > 100 µM (inactive) | 70 µM (inactive) | –
4 | CCCCCCCCCc1cc(=O)c2ccc(OCc3ccccc3)cc2o1 | > 100 µM (inactive) | > 100 µM (inactive) | > 100 µM (inactive) | > 100 µM (inactive) | 14.5 µM (inactive) | > 100 µM (inactive) | > 100 µM (inactive) | > 100 µM (inactive) | > 100 µM (inactive) | 64.4 µM (inactive) | > 100 µM (inactive) | > 100 µM (inactive) | > 100 µM (inactive) | > 100 µM (inactive) | > 100 µM (inactive)
5 | COc1ccc(OC)c2c1C(=O)C1CC1(Br)C2=O (stereo not drawn) | > 100 µM (inactive) | > 100 µM (inactive) | > 100 µM (inactive) | > 100 µM (inactive) | > 100 µM (inactive) | > 100 µM (inactive) | > 100 µM (inactive) | > 100 µM (inactive) | > 100 µM (inactive) | > 100 µM (inactive) | > 100 µM (inactive) | > 100 µM (inactive) | > 100 µM (inactive) | 73.1 µM (inactive) | –
6 | CC1CCC23COC(=O)C2C(O)CCC3C1(C)CC(O)c1ccoc1 (stereo not drawn) | > 100 µM (inactive) | > 100 µM (inactive) | > 100 µM (inactive) | > 100 µM (inactive) | – | > 100 µM (inactive) | > 100 µM (inactive) | > 100 µM (inactive) | > 100 µM (inactive) | > 100 µM (inactive) | > 100 µM (inactive) | > 100 µM (inactive) | > 100 µM (inactive) | > 100 µM (inactive) | > 100 µM (inactive)
7 | COc1cccc2c1C(=O)c1c(O)c3c(c(O)c1C2=O)C[C@@](O)(C(=O)CO)CC3OC1CC(N(C)CCOCC(OC(C)=O)OC(C)=O)C(O)C(C)O1 (stereo partly drawn) | > 0.01 µM (active) | > 0.01 µM (active) | > 0.01 µM (active) | > 0.01 µM (active) | > 0.01 µM (active) | > 0.01 µM (active) | > 0.01 µM (active) | > 0.01 µM (active) | > 0.01 µM (active) | > 0.01 µM (active) | > 0.01 µM (active) | > 0.01 µM (active) | > 0.01 µM (active) | > 0.01 µM (active) | > 0.01 µM (active)
